Assay results published in patent US8916498B2, “Safening 6-(trisubstituted phenyl)-4-amino-2-pyridinecarboxylate herbicide injury on direct seeded and transplanted paddy rice” (priority 2008, dated 2014).
Several values for one entry are separate records, joined by “and”; a condition that tells them apart may be missing. Identical values can stand only once.

Assays:
ORYSA (rice) = assay: Postemergence herbicidal safening in direct seeded rice, visual injury; settings: for Visual Injury (%) ‘Lemont’ ORYSA Obs / ‘M202’ ORYSA Visual Injury (%) Obs: after 3 weeks
Text: A=observed efficacy of active ingredient A at the same concentration as used in the mixture.
B=observed efficacy of active ingredient B at the same concentration as used in the mixture.

SEBEX = assay: Postemergence herbicidal safening in direct seeded rice, visual injury on weed; assay type: in vivo; settings: alone, after 3 weeks
ECHCO = assay: as above; assay type: in vivo; settings: alone, after 3 weeks
CYPDI = assay: as above; assay type: in vivo; settings: alone, after 3 weeks
[1] = alone, 17.5 g ae/ha, after 3 weeks (Table 14)
[2] = alone, 35 g ae/ha, after 3 weeks (Table 14)
[3] = alone, 8.75 g ae/ha, after 3 weeks (Table 14)
[4] = No safener, 17.5 g ai/ha, after 3 weeks (Table 12)

With O=C(C(Cl)Cl)N1CCOC12CCCCC2 [AD67] the “ORYSA Visual Injury (%) ‘Lemont’ Obs” value (ORYSA (rice); safener 140 g ai/ha alone) was 0%, the “ORYSA Visual Injury (%) ‘M202’ Obs” value (ORYSA (rice); safener 140 g ai/ha alone) was 0% and the “ORYSA Visual Injury (%) ‘M202’ Obs” value (ORYSA (rice); safener 280 g ai/ha alone) was 15%.
With CCC(C)OC(=O)COc1ccc(Cl)c2cccnc12 (stereo not shown) [Cloquintocet 1-Methylpropyl Ester] the “Visual Injury (%) SEBEX Obs” value (SEBEX; 280 g ae/ha) was 0%, the “Visual Injury (%) ECHCO Obs” value (ECHCO; 280 g ae/ha) was 0% and the “Visual Injury (%) CYPDI Obs” value (CYPDI; 280 g ae/ha) was 0%. For the same molecule, the “Visual Injury (%) ‘Lemont’ ORYSA Obs” value (ORYSA (rice); alone, 280 g ae/ha) was 0%.
In the case of CCOC(=O)COc1ccc(Cl)c2cccnc12 [Cloquintocet Ethyl Ester], the “Visual Injury (%) SEBEX Obs” value (SEBEX; 280 g ae/ha) is reported as 0%, the “Visual Injury (%) ECHCO Obs” value (ECHCO; 280 g ae/ha) is reported as 0% and the “Visual Injury (%) CYPDI Obs” value (CYPDI; 280 g ae/ha) is reported as 0%. For the same molecule, the “Visual Injury (%) ‘Lemont’ ORYSA Obs” value (ORYSA (rice); alone, 280 g ae/ha) was 0%.
COC(=O)COc1ccc(Cl)c2cccnc12 [Cloquintocet Methyl Ester] was tested, and the “Visual Injury (%) SEBEX Obs” value (SEBEX; 280 g ae/ha) was 0%, the “Visual Injury (%) ECHCO Obs” value (ECHCO; 280 g ae/ha) was 0% and the “Visual Injury (%) CYPDI Obs” value (CYPDI; 280 g ae/ha) was 0%. For the same molecule, the “Visual Injury (%) ‘Lemont’ ORYSA Obs” value (ORYSA (rice); alone, 280 g ae/ha) was 0%.
CC(C)OC(=O)COc1ccc(Cl)c2cccnc12 [Cloquintocet i-Propyl Ester] was tested, and the “Visual Injury (%) SEBEX Obs” value (SEBEX; 280 g ae/ha) was 0%, the “Visual Injury (%) ECHCO Obs” value (ECHCO; 280 g ae/ha) was 0% and the “Visual Injury (%) CYPDI Obs” value (CYPDI; 280 g ae/ha) was 0%. The “Visual Injury (%) ‘Lemont’ ORYSA Obs” value (ORYSA (rice); alone, 280 g ae/ha) was 0%.
For C=CCOC(=O)c1nc(-c2ccc(Cl)c(OC)c2F)cc(N)c1Cl [Compound 1 Allyl Ester], the “ORYSA Visual Injury (%) ‘Cheniere’ Obs” value (ORYSA (rice); [1]) was 55%, the “ORYSA Visual Injury (%) ‘Clearfield’ Obs” value (ORYSA (rice); [1]) was 50% and the “ORYSA Visual Injury (%) ‘Cocodrie’ Obs” value (ORYSA (rice); [1]) was 30%. For the same molecule, the “ORYSA Visual Injury (%) ‘Lemont’ Obs” value (ORYSA (rice); [1]) was 25%, the “ORYSA Visual Injury (%) ‘M202’ Obs” value (ORYSA (rice); [1]) was 55% and the “ORYSA Visual Injury (%) ‘Wells’ Obs” value (ORYSA (rice); [1]) was 10%.
For CCCCOCCOC(=O)c1nc(-c2ccc(Cl)c(OC)c2F)cc(N)c1Cl [Compound 1 Et butoxy Ester], the “ORYSA Visual Injury (%) ‘Cheniere’ Obs” value (ORYSA (rice); [2]) was 50%, the “ORYSA Visual Injury (%) ‘Clearfield’ Obs” value (ORYSA (rice); [2]) was 40% and the “ORYSA Visual Injury (%) ‘Cocodrie’ Obs” value (ORYSA (rice); [2]) was 50%. For the same molecule, the “ORYSA Visual Injury (%) ‘Lemont’ Obs” value (ORYSA (rice); [2]) was 50%, the “ORYSA Visual Injury (%) ‘M202’ Obs” value (ORYSA (rice); [2]) was 30% and the “ORYSA Visual Injury (%) ‘Wells’ Obs” value (ORYSA (rice); [2]) was 15%.
In the case of COc1c(Cl)ccc(-c2cc(N)c(Cl)c(C(=O)[O-])n2)c1F.[K+] [Compound 1 K^+ Salt], the “ORYSA Visual Injury (%) ‘Cheniere’ Obs” value (ORYSA (rice); [3]) is reported as 50%, the “ORYSA Visual Injury (%) ‘Clearfield’ Obs” value (ORYSA (rice); [3]) is reported as 45% and the “ORYSA Visual Injury (%) ‘Cocodrie’ Obs” value (ORYSA (rice); [3]) is reported as 30%. The “ORYSA Visual Injury (%) ‘Lemont’ Obs” value (ORYSA (rice); [3]) was 40%, the “ORYSA Visual Injury (%) ‘M202’ Obs” value (ORYSA (rice); [3]) was 50% and the “ORYSA Visual Injury (%) ‘Wells’ Obs” value (ORYSA (rice); [3]) was 0%.
COC(=O)c1nc(-c2ccc(Cl)c(OC)c2F)cc(N)c1Cl [Compound 1 Methyl Ester] was tested, and the “Visual Injury (%) SEBEX Obs” value (SEBEX; 17.5 g ae/ha) was 100%, the “Visual Injury (%) SEBEX Obs” value (SEBEX; 35 g ae/ha) was 100% and the “Visual Injury (%) SEBEX Obs” value (SEBEX; 35 g ai/ha) was 100%. For the same molecule, the “Visual Injury (%) SEBEX Obs” value (SEBEX; 70 g ae/ha) was 100%, the “Visual Injury (%) SEBEX Obs” value (SEBEX; 70 g ai/ha) was 100% and the “Visual Injury (%) ECHCO Obs” value (ECHCO; 17.5 g ae/ha) was 99%. For the same molecule, the “Visual Injury (%) ECHCO Obs” value (ECHCO; 35 g ae/ha) was 99%, the “Visual Injury (%) ECHCO Obs” value (ECHCO; 35 g ai/ha) was 95% and 100% and the “Visual Injury (%) ECHCO Obs” value (ECHCO; 70 g ae/ha) was 100%. The “Visual Injury (%) ECHCO Obs” value (ECHCO; 70 g ai/ha) was 99% and 100%, the “Visual Injury (%) CYPDI Obs” value (CYPDI; 17.5 g ae/ha) was 100% and the “Visual Injury (%) CYPDI Obs” value (CYPDI; 35 g ae/ha) was 100%. The “Visual Injury (%) CYPDI Obs” value (CYPDI; 35 g ai/ha) was 100%, the “Visual Injury (%) CYPDI Obs” value (CYPDI; 70 g ae/ha) was 100% and the “Visual Injury (%) CYPDI Obs” value (CYPDI; 70 g ai/ha) was 100%. For the same molecule, the “‘M202’ ORYSA Visual Injury (%) Obs” value (ORYSA (rice); No safener, 17.5 g ai/ha) was 15.0%, the “ORYSA Visual Injury (%) ‘Cheniere’ Obs” value (ORYSA (rice); [4]) was 20% and the “ORYSA Visual Injury (%) ‘Cocodrie’ Obs” value (ORYSA (rice); [4]) was 13%. For the same molecule, the “ORYSA Visual Injury (%) ‘M202’ Obs” value (ORYSA (rice); [4]) was 45%, the “‘M202’ ORYSA Visual Injury (%) Obs” value (ORYSA (rice); No safener, 35 g ai/ha) was 35.0% and the “Visual Injury (%) ‘Lemont’ ORYSA Obs” value (ORYSA (rice); alone, 17.5 g ae/ha) was 15%. The “ORYSA Visual Injury (%) ‘Cheniere’ Obs” value (ORYSA (rice); [1]) was 85%, the “ORYSA Visual Injury (%) ‘Clearfield’ Obs” value (ORYSA (rice); [1]) was 45% and the “ORYSA Visual Injury (%) ‘Cocodrie’ Obs” value (ORYSA (rice); [1]) was 55%. For the same molecule, the “ORYSA Visual Injury (%) ‘Lemont’ Obs” value (ORYSA (rice); [1]) was 40%, the “ORYSA Visual Injury (%) ‘M202’ Obs” value (ORYSA (rice); [1]) was 25% and the “ORYSA Visual Injury (%) ‘Wells’ Obs” value (ORYSA (rice); [1]) was 10%. The “Visual Injury (%) ‘Lemont’ ORYSA Obs” value (ORYSA (rice); alone, 35 g ae/ha) was 35%, the “Visual Injury (%) ‘Lemont’ ORYSA Obs” value (ORYSA (rice); alone, 70 g ae/ha) was 45% and the “Visual Injury (%) ‘Lemont’ ORYSA Obs” value (ORYSA (rice); alone, 70 g ai/ha) was 50% and 25%.
